Experimental data from ChEMBL document CHEMBL1201862, “PubChem BioAssay data set” (2004).
“And” between values parts separate entries of the source, which are not always exact repeats. Equal entries are not always repeated.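 Results reflect a 48-hour exposure of cells in 96-well plates to compound at five concentrations. GI50 is the concentration that inhibits growth by half.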 The source made the active and inactive calls. Cut-off read from the data, not from the text of the source: active = GI50 up to about 1.1 µM and inactive = higher. Peptide text beside a SMILES is read from it. * marks the point of attachment. Boc = CC(C)(C)OC(=O)*

Tests used:
Experiment in all cases: NCI anticancer screen, dose series, 48 h
786-0 = tested on: 786-0
A549 = tested on: A549
ACHN = tested on: ACHN
HCC 2998 = tested on: HCC 2998
HCT-15 = tested on: HCT-15
HOP-62 = tested on: HOP-62
HT-29 = tested on: HT-29
LOX IMVI = tested on: LOX IMVI
M14 = tested on: M14
MOLT-4 = tested on: MOLT-4
OVCAR-4 = tested on: OVCAR-4
PC-3 = tested on: PC-3
SF-268 = tested on: SF-268
SNB-75 = tested on: SNB-75
T47D = tested on: T47D
TK-10 = tested on: TK-10
UACC-257 = tested on: UACC-257
SN12C = tested on: SN12C
MDA-N = tested on: MDA-N
RPMI-8226 = tested on: RPMI-8226

| SMILES | GI50 (786-0) | GI50 (A549) | GI50 (ACHN) | GI50 (HCC 2998) | GI50 (HCT-15) | GI50 (HOP-62) | GI50 (HT-29) | GI50 (LOX IMVI) | GI50 (M14) | GI50 (MOLT-4) | GI50 (OVCAR-4) | GI50 (PC-3) | GI50 (SF-268) | GI50 (SNB-75) | GI50 (T47D) | GI50 (TK-10) | GI50 (UACC-257) | GI50 (SN12C) | GI50 (MDA-N) | GI50 (RPMI-8226) |
| --- | --- | --- | --- | --- | --- | --- | --- | --- | --- | --- | --- | --- | --- | --- | --- | --- | --- | --- | --- | --- |
| NC(N)=NCCC[C@H](N)C(=O)NCC(=O)N[C@@H](CC(=O)O)c1ncc(NC(=O)C(F)(F)F)o1 | > 25 µM (inactive) | > 25 µM (inactive) | > 25 µM (inactive) | 17.8 µM (inactive) | > 25 µM | > 25 µM (inactive) | > 25 µM (inactive) | > 25 µM (inactive) | > 25 µM (inactive) | > 25 µM (inactive) | > 25 µM (inactive) | > 25 µM (inactive) | > 25 µM (inactive) | > 25 µM (inactive) | > 25 µM (inactive) | > 25 µM (inactive) | > 25 µM (inactive) | – | – | – |
| COc1ccc(/C=N/Nc2nc3ccccc3c(=O)n2-c2ccccc2)c(OCc2ccccc2)c1 | > 100 µM (inactive) | > 100 µM (inactive) | > 100 µM (inactive) | > 100 µM (inactive) | > 100 µM | > 100 µM (inactive) | > 100 µM (inactive) | > 100 µM (inactive) | 83.9 µM (inactive) | > 100 µM (inactive) | > 100 µM (inactive) | 35.6 µM (inactive) | > 100 µM (inactive) | – | > 100 µM (inactive) | > 100 µM (inactive) | > 100 µM (inactive) | > 100 µM (inactive) | – | – |
| CCOCC(NC(=O)C(CC(C)C)NC(=O)OC(C)(C)C)C(N)=O (stereo not drawn) (Boc-Leu-Ser(Et)-NH2; configuration not given here) | > 100 µM (inactive) | > 100 µM (inactive) | > 100 µM (inactive) | – | > 100 µM | > 100 µM (inactive) | > 100 µM (inactive) | > 100 µM (inactive) | > 100 µM (inactive) | > 100 µM (inactive) | > 100 µM (inactive) | > 100 µM (inactive) | > 100 µM (inactive) | 0.11 µM (active) | > 100 µM (inactive) | > 100 µM (inactive) | > 100 µM (inactive) | > 100 µM (inactive) | > 100 µM (inactive) | – |
| [N-]=[N+]=C(C(=O)CN1CCCC1=O)S(=O)(=O)c1ccccc1 | > 100 µM (inactive) | > 100 µM (inactive) | > 100 µM (inactive) | > 100 µM (inactive) | > 100 µM | > 100 µM (inactive) | > 100 µM (inactive) | > 100 µM (inactive) | > 100 µM (inactive) | > 100 µM (inactive) | – | > 100 µM (inactive) | > 100 µM (inactive) | > 100 µM (inactive) | – | > 100 µM (inactive) | > 100 µM (inactive) | > 100 µM (inactive) | > 100 µM (inactive) | > 100 µM (inactive) |
| C1=N\CCOCC/N=C/c2ccccc2OCc2cccc(n2)COc2ccccc2/1 | 10 µM (inactive) | > 25 µM (inactive) | 9.23 µM (inactive) | – | 6.46 µM | 16.5 µM (inactive) | 5.22 µM (inactive) | – | 8.87 µM (inactive) | 4.91 µM (inactive) | 6.03 µM (inactive) | 8.93 µM (inactive) | 9.4 µM (inactive) | 2.83 µM (inactive) | – | 6.27 µM (inactive) | 8.11 µM (inactive) | 5.96 µM (inactive) | 0.942 µM (active) | 4.88 µM (inactive) |
| N#CC(C(=O)/C(=N/Nc1nc(S)nn1N)C(C#N)c1ccccc1)c1ccccc1 (configuration not stated) | > 100 µM (inactive) | > 100 µM (inactive) | > 100 µM (inactive) | > 100 µM (inactive) | > 100 µM | > 100 µM (inactive) | > 100 µM (inactive) | > 100 µM (inactive) | > 100 µM (inactive) | – | > 100 µM (inactive) | > 100 µM (inactive) | > 100 µM (inactive) | > 100 µM (inactive) | > 100 µM (inactive) | > 100 µM (inactive) | > 100 µM (inactive) | > 100 µM (inactive) | – | > 100 µM (inactive) |
| COc1ccc(N[S+]([O-])c2ccccc2OC)cc1 (configuration not stated) | 43.3 µM (inactive) | 16.2 µM (inactive) | 20.4 µM (inactive) | > 10 µM (inactive) | 5.16 µM | 37.2 µM (inactive) | 18.1 µM (inactive) | 10.3 µM (inactive) | 33.3 µM (inactive) | 27 µM (inactive) | 53.7 µM (inactive) | – | 7.28 µM (inactive) | – | 4.37 µM (inactive) | > 100 µM (inactive) | 33.7 µM (inactive) | > 100 µM (inactive) | 33.4 µM (inactive) | 18.7 µM (inactive) |
| Cc1cccc(N2C(=O)C3ON(C(C(N)=O)c4ccccc4)C(c4c5ccccc5c(Cl)c5ccccc45)C3C2=O)c1C (configuration not stated) | 9.62 µM (inactive) | 14.3 µM (inactive) | 9.16 µM (inactive) | – | 7.38 µM | 10.6 µM (inactive) | 7.82 µM (inactive) | 7.1 µM (inactive) | 7.93 µM (inactive) | 1.89 µM (inactive) | 9.57 µM (inactive) | 7.78 µM (inactive) | 9.59 µM (inactive) | 8.05 µM (inactive) | 9.57 µM (inactive) | 11.8 µM (inactive) | 6.87 µM (inactive) | 8.07 µM (inactive) | 3.3 µM (inactive) | – |
| CCOC(=O)/C(C#N)=N\Nc1ccc(-n2c(C)nc3ccccc3c2=O)cc1 | > 100 µM (inactive) | 73.6 µM (inactive) | > 100 µM (inactive) | – | 62.1 µM | > 100 µM (inactive) | > 100 µM (inactive) | 66.2 µM (inactive) | 69.8 µM (inactive) | 23.7 µM (inactive) | – | 75.3 µM (inactive) | > 100 µM (inactive) | 63.5 µM (inactive) | 34.8 µM (inactive) | > 100 µM (inactive) | 61.4 µM (inactive) | > 100 µM (inactive) | 47.3 µM (inactive) | 30.9 µM (inactive) |
| CSC1=N/C(=C\c2cccs2)C(=O)N1CN1CCCCC1 | 65.6 µM (inactive) | > 100 µM (inactive) | 28 µM (inactive) | – | 37.2 µM | > 100 µM (inactive) | 25.1 µM (inactive) | 23.1 µM (inactive) | > 100 µM (inactive) | 64.9 µM (inactive) | – | > 100 µM (inactive) | 37.8 µM (inactive) | 31.9 µM (inactive) | – | > 100 µM (inactive) | – | > 100 µM (inactive) | > 100 µM (inactive) | 22.1 µM (inactive) |
| C=C1CC[C@@H](C)[C@](C)(CCc2ccoc2)C/C=C\C=C/1C(=O)O | 46.6 µM (inactive) | 36.2 µM (inactive) | 53.2 µM (inactive) | – | 35.2 µM | 44.8 µM (inactive) | 36.7 µM (inactive) | 21.1 µM (inactive) | 32.4 µM (inactive) | 27 µM (inactive) | 39.5 µM (inactive) | 28.9 µM (inactive) | – | 80 µM (inactive) | – | > 100 µM (inactive) | 53 µM (inactive) | 50.5 µM (inactive) | 22 µM (inactive) | – |
| O=P(O)(CN1CCN(CP(=O)(O)c2ccccc2)CCN(CP(=O)(O)c2ccccc2)CC1)c1ccccc1 | 78 µM (inactive) | 47.6 µM (inactive) | > 100 µM (inactive) | 78.2 µM (inactive) | – | > 100 µM (inactive) | 26.1 µM (inactive) | 67.3 µM (inactive) | – | 26.4 µM (inactive) | 32.1 µM (inactive) | – | > 100 µM (inactive) | > 100 µM (inactive) | > 100 µM (inactive) | 92.5 µM (inactive) | – | – | 67.8 µM (inactive) | 51.4 µM (inactive) |
| C[S+](C)CC(=O)c1ccc2c(c1)Sc1ccccc1O2 | 2.72 µM (inactive) | 5.68 µM (inactive) | 5.78 µM (inactive) | 2.64 µM (inactive) | 2.47 µM | 13.2 µM (inactive) | 1.17 µM (inactive) | 3.18 µM (inactive) | 0.755 µM (active) | 3.29 µM (inactive) | 3.44 µM (inactive) | 1.04 µM (active) | 5.43 µM (inactive) | 2.7 µM (inactive) | 9.57 µM (inactive) | 5.38 µM (inactive) | 4.72 µM (inactive) | 6.34 µM (inactive) | – | 2.59 µM (inactive) |
| CO[C@H]1[C@@H](O)[C@@H](C)O[C@@H](O[C@H]2CC[C@@]3(C)[C@H](CC[C@@H]4[C@@H]3CC[C@]3(C)[C@@H](C5=CC(=O)OC5)[C@@H](OC(C)=O)C[C@]43O)C2)[C@@H]1O [NERITALOSIDE] | 0.0176 µM (active) | 0.0104 µM (active) | 0.0188 µM (active) | 0.23 µM (active) | 0.0973 µM | 0.0253 µM (active) | 0.0461 µM (active) | 0.0708 µM (active) | 0.0904 µM (active) | 0.0211 µM (active) | 0.0601 µM (active) | 0.0256 µM (active) | 0.024 µM (active) | 0.112 µM (active) | 0.162 µM (active) | 0.0164 µM (active) | 0.1 µM (active) | 0.0152 µM (active) | – | 0.17 µM (active) |
| CCOP(=O)(OCC)C(C)(CC)NC(=O)C(C(F)(F)F)C(F)(F)F (configuration not stated) | 40.4 µM (inactive) and 61.5 µM (inactive) | > 100 µM (inactive) | > 100 µM (inactive) | > 100 µM (inactive) | > 100 µM | > 100 µM (inactive) | > 100 µM (inactive) | > 88.3 µM (inactive) and 72.3 µM (inactive) | > 100 µM (inactive) | > 49.3 µM (inactive) and 63.4 µM (inactive) | > 100 µM (inactive) | > 100 µM (inactive) | > 100 µM (inactive) | – | – | 75.9 µM (inactive) | > 100 µM (inactive) | > 100 µM (inactive) | > 100 µM (inactive) | 33.3 µM (inactive) and 21.9 µM (inactive) |
